Here are results for 24 molecules from US9617226B2 (AbbVie Deutschland GmbH & Co. KG, priority 2014, dated 2017).

For orientation: Ki means the dissociation constant of the complex between target and ligand, obtained from inhibition or displacement. A high value points to a looser hold on the target.

Where only a bound is given, the exact number is not on record here.

The target of test [1] is human vasopressin V1a receptor (Homo sapiens (Human), UniProt P37288). The experiment in a line: Vasopressin V1a receptor binding assay. The settings on record: selectivity quotient, human V1a vs human V1b. On the procedure:
The test substances were dissolved in a concentration of 5 mM M in DMSO. Further dilution of these DMSO solutions took place as described for V1b.
The membrane pellet was again homogenized in a High-Pressure-Homogenizer, Polytec 50K at 1500 PSI (Heinemann, Germany) and subsequently taken up in 50 mM Tris-HCl, pH 7.4, homogenized and stored in aliquots frozen in liquid nitrogen at −190° C.
The incubation buffer was: 50 mM Tris, 10 mM MgCl2, 0.1% BSA, pH 7.4.
Duplicate determinations were carried out.
After incubation (60 minutes at room temperature), the samples were processed as described for V1b.
The binding parameters were calculated by nonlinear regression in SAS.

The target of test [2] is human vasopressin V1b receptor (Homo sapiens (Human), UniProt P47901). The experiment in a line: biochemical.
Sequence of human vasopressin V1b receptor (P47901 whole entry): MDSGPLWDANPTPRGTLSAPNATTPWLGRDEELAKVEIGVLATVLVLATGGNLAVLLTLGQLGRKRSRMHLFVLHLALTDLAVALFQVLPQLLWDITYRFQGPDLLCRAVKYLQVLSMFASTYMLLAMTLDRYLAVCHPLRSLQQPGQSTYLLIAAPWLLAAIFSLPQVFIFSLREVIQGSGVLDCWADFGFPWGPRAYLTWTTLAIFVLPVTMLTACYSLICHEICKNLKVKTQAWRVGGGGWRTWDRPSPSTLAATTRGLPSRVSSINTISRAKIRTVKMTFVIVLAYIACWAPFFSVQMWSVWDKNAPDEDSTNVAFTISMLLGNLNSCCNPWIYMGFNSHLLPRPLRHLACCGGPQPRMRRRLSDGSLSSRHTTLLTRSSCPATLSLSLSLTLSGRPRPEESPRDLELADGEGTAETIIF

Sequence of human vasopressin V1a receptor (P37288 whole entry): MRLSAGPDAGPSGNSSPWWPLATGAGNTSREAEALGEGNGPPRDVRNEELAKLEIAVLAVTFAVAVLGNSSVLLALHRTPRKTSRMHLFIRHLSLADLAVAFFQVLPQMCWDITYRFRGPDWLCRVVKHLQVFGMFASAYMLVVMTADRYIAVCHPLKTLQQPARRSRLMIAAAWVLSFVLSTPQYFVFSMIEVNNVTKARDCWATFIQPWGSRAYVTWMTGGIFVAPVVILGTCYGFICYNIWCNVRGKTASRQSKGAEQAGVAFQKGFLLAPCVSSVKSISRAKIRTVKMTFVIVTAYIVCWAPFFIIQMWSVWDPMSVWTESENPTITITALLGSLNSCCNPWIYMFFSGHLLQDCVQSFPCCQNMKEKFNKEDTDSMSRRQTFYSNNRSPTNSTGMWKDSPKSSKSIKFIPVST

For `CC(C)NC(=O)Cn1c(-c2cccc(Cl)c2)nc2ccc([C@H]3C[C@@H](CN4CCC(C#N)CC4)C3)cc2c1=O` [Example 7, Cis-2-[2-(3-Chlorophenyl)-6-[3-[(4-cyano-1-piperidyl)methyl]cyclobutyl]-4-oxo-quinazolin-3-yl]-N-isopropyl-acetamide], the “Ki(h-V1a)/Ki(h-V1b)” value in test [1] is “+++ (>75)”. This molecule showed a Ki in test [2] of 10 to 100 nM.
For `CC(C)NC(=O)Cn1c(-c2cccc(Cl)c2)nc2ccc([C@H]3C[C@@H](CN4CCSCC4)C3)cc2c1=O` [Example 8, cis-2-[2-(3-Chlorophenyl)-4-oxo-6-[3-(thiomorpholinomethyl)cyclobutyl]quinazolin-3-yl]-N-isopropyl-acetamide], in test [1], the “Ki(h-V1a)/Ki(h-V1b)” value is reported as “+++ (>75)”. This molecule also yielded a Ki in test [2] of less than 1 nM.
As for `CC(C)NC(=O)Cn1c(-c2cccc(Cl)c2)nc2ccc([C@H]3C[C@@H](CN4CCCC4)C3)cc2c1=O` [Example 9, cis-2-[2-(3-Chlorophenyl)-4-oxo-6-[3-(pyrrolidin-1-ylmethyl)cyclobutyl]quinazolin-3-yl]-N-isopropyl-acetamide], the “Ki(h-V1a)/Ki(h-V1b)” value in test [1] is reported as “+++ (>75)”. This molecule also came in with a Ki in test [2] of 10 to 100 nM.
For the molecule `COC1CCN(C[C@H]2C[C@@H](c3ccc4nc(-c5cccc(Cl)c5)n(CC(=O)NC(C)C)c(=O)c4c3)C2)CC1` [Example 10, cis-2-[2-(3-Chlorophenyl)-6-[3-[(4-methoxy-1-piperidyl)methyl]cyclobutyl]-4-oxo-quinazolin-3-yl]-N-isopropyl-acetamide], the “Ki(h-V1a)/Ki(h-V1b)” value in test [1] was “+++ (>75)”. In test [2], this molecule displayed a Ki of 1 to 10 nM.
Turning to `CC(C)NC(=O)Cn1c(-c2cccc(Cl)c2)nc2ccc([C@H]3C[C@@H](CN4CC[C@@H](F)C4)C3)cc2c1=O` [Example 11, cis-2-[2-(3-Chlorophenyl)-6-[3-[[(3R)-3-fluoropyrrolidin-1-yl]methyl]cyclobutyl]-4-oxo-quinazolin-3-yl]-N-isopropyl-acetamide], the “Ki(h-V1a)/Ki(h-V1b)” value in test [1] is recorded as “+++ (>75)”. In test [2], this molecule had a Ki of 1 to 10 nM.
As for `CC(C)NC(=O)Cn1c(-c2cccc(Cl)c2)nc2ccc([C@H]3C[C@@H](CN4CCC(F)(F)CC4)C3)cc2c1=O` [Example 12, cis-2-[2-(3-Chlorophenyl)-6-[3-[(4,4-difluoro-1-piperidyl)methyl]cyclobutyl]-4-oxo-quinazolin-3-yl]-N-isopropyl-acetamide], the “Ki(h-V1a)/Ki(h-V1b)” value in test [1] is “+++ (>75)”. This molecule came in with a Ki in test [2] of 1 to 10 nM.
`CC(C)NC(=O)Cn1c(-c2cccc(Cl)c2)nc2ccc([C@H]3C[C@@H](CN4CCOCC4)C3)cc2c1=O` [Example 13, cis-2-[2-(3-Chlorophenyl)-6-[3-(morpholinomethyl)cyclobutyl]-4-oxo-quinazolin-3-yl]-N-isopropyl-acetamide]: the “Ki(h-V1a)/Ki(h-V1b)” value in test [1] was “+++ (>75)”. The same molecule registered a Ki in test [2] of 1 to 10 nM.
The corresponding values for `CCN(CC)C[C@H]1C[C@@H](c2ccc3nc(-c4cccc(Cl)c4)n(CC(=O)NC(C)C)c(=O)c3c2)C1` [Example 15, cis-2-[2-(3-Chlorophenyl)-6-[3-(diethylaminomethyl)cyclobutyl]-4-oxo-quinazolin-3-yl]-N-isopropyl-acetamide] are “+++ (>75)” and 10 to 100 nM.
The corresponding values for `CC(C)NC(=O)Cn1c(-c2cccc(Cl)c2)nc2ccc([C@H]3C[C@@H](CN4CC[C@H](F)C4)C3)cc2c1=O` [Example 16, cis-2-[2-(3-Chlorophenyl)-6-[3-[ [(3S)-3-fluoropyrrolidin-1-yl]methyl]cyclobutyl]-4-oxo-quinazolin-3-yl]-N-isopropyl-acetamide] are “+++ (>75)” and 1 to 10 nM.
The corresponding values for `CC(C)NC(=O)Cn1c(-c2cccc(Cl)c2)nc2ccc([C@H]3C[C@@H](CN(C)C)C3)cc2c1=O` [Example 17, cis-2-[2-(3-Chlorophenyl)-6-[3-(dimethylaminomethyl)cyclobutyl]-4-oxo-quinazolin-3-yl]-N-isopropyl-acetamide] are “+++ (>75)” and 10 to 100 nM.
With `CC(C)NC(=O)Cn1c(-c2cccc(Cl)c2)nc2ccc([C@H]3C[C@@H](CN4CC=CCC4)C3)cc2c1=O` [Example 18, cis-2-[2-(3-Chlorophenyl)-6-[3-(3,6-dihydro-2H-pyridin-1-ylmethyl)cyclobutyl]-4-oxo-quinazolin-3-yl]-N-isopropyl-acetamide], the “Ki(h-V1a)/Ki(h-V1b)” value in test [1] is listed as “+++ (>75)”. Further, the Ki in test [2] is 1 to 10 nM.
Regarding `CC(C)NC(=O)Cn1c(-c2cccc(Cl)c2)nc2ccc([C@H]3C[C@@H](CN4CC(F)C4)C3)cc2c1=O` [Example 19, cis-2-[2-(3-Chlorophenyl)-6-[3-[(3-fluoroazetidin-1-yl)methyl]cyclobutyl]-4-oxo-quinazolin-3-yl]-N-isopropyl-acetamide], the “Ki(h-V1a)/Ki(h-V1b)” value in test [1] is reported as “+++ (>75)”. Further, the Ki in test [2] lay within 1 to 10 nM.
As to `CCOC1CCN(C[C@H]2C[C@@H](c3ccc4nc(-c5cccc(Cl)c5)n(CC(=O)NC(C)C)c(=O)c4c3)C2)CC1` [Example 20, cis-2-[2-(3-Chlorophenyl)-6-[3-[(4-ethoxy-1-piperidyl)methyl]cyclobutyl]-4-oxo-quinazolin-3-yl]-N-isopropyl-acetamide], the “Ki(h-V1a)/Ki(h-V1b)” value in test [1] is “+++ (>75)”. Further, the inhibitory constant (Ki) in test [2] fell in the range of 10 to 100 nM.
Turning to `CC(C)NC(=O)Cn1c(-c2cccc(Cl)c2)nc2ccc([C@H]3C[C@@H](CN4CCCCCC4)C3)cc2c1=O` [Example 21, cis-2-[6-[3-(Azepan-1-ylmethyl)cyclobutyl]-2-(3-chlorophenyl)-4-oxo-quinazolin-3-yl]-N-isopropyl-acetamide], the “Ki(h-V1a)/Ki(h-V1b)” value in test [1] is listed as “+++ (>75)”. Besides, in test [2], the Ki lay in the range of 1 to 10 nM.
Take `CC1CCN(C[C@H]2C[C@@H](c3ccc4nc(-c5cccc(Cl)c5)n(CC(=O)NC(C)C)c(=O)c4c3)C2)CC1` [Example 22, cis-2-[2-(3-Chlorophenyl)-6-[3-[(4-methyl-1-piperidyl)methyl]cyclobutyl]-4-oxo-quinazolin-3-yl]-N-isopropyl-acetamide]: in test [1], the “Ki(h-V1a)/Ki(h-V1b)” value is listed as “+++ (>75)”. Also, the Ki in test [2] is 1 to 10 nM.
On to `CC(C)NC(=O)Cn1c(-c2cccc(Cl)c2)nc2ccc([C@H]3C[C@@H](CN4CC[C@H](C)C4)C3)cc2c1=O` [Example 24, cis-2-[2-(3-Chlorophenyl)-6-[3-[[(3S)-3-methylpyrrolidin-1-yl]methyl]cyclobutyl]-4-oxo-quinazolin-3-yl]-N-isopropyl-acetamide], for which the “Ki(h-V1a)/Ki(h-V1b)” value in test [1] is “+++ (>75)”. This molecule also displayed a Ki in test [2] of 10 to 100 nM.
As to `CC(C)NC(=O)Cn1c(-c2cccc(Cl)c2)nc2ccc([C@H]3C[C@@H](CN4CCCOCC4)C3)cc2c1=O` [Example 25, cis-2-[2-(3-Chlorophenyl)-6-[3-(1,4-oxazepan-4-ylmethyl)cyclobutyl]-4-oxo-quinazolin-3-yl]-N-isopropyl-acetamide], in test [1], the “Ki(h-V1a)/Ki(h-V1b)” value is reported as “+++ (>75)”. The molecule also returned a Ki in test [2] of 1 to 10 nM.
On the same counts, the results for `CC(C)(C)NC(=O)Cn1c(-c2cccc(Cl)c2)nc2ccc([C@H]3C[C@@H](CN4CCCCC4)C3)cc2c1=O` [Example 26, cis-N-tert-Butyl-2-[2-(3-chlorophenyl)-4-oxo-6-[3-(1-piperidylmethyl)cyclobutyl]-quinazolin-3-yl]acetamide] are “+++ (>75)” and less than 1 nM.
With `O=C(Cn1c(-c2cccc(Cl)c2)nc2ccc([C@H]3C[C@@H](CN4CCCCC4)C3)cc2c1=O)NC1CC1` [Example 27, cis-2-[2-(3-Chlorophenyl)-4-oxo-6-[3-(1-piperidylmethyl)cyclobutyl]quinazolin-3-yl]-N-cyclopropyl-acetamide], the “Ki(h-V1a)/Ki(h-V1b)” value in test [1] was “+++ (>75)”. In test [2], this molecule yielded a Ki of 10 to 100 nM.
As to `CCCNC(=O)Cn1c(-c2cccc(Cl)c2)nc2ccc([C@H]3C[C@@H](CN4CCCCC4)C3)cc2c1=O` [Example 28, cis-2-[2-(3-Chlorophenyl)-4-oxo-6-[3-(1-piperidylmethyl)cyclobutyl]quinazolin-3-yl]-N-propyl-acetamide], the “Ki(h-V1a)/Ki(h-V1b)” value in test [1] was “+++ (>75)”. This molecule had a Ki in test [2] of 10 to 100 nM.
The corresponding values for `O=C(Cn1c(-c2cccc(Cl)c2)nc2ccc([C@H]3C[C@@H](CN4CCCCC4)C3)cc2c1=O)NCC1CC1` [Example 29, cis-2-[2-(3-Chlorophenyl)-4-oxo-6-[3-(1-piperidylmethyl)cyclobutyl]quinazolin-3-yl]-N-(cyclopropylmethyl)acetamide] are “+++ (>75)” and 10 to 100 nM.
The corresponding values for `CC(C)NC(=O)Cn1c(-c2cccc(Cl)c2)nc2ccc([C@H]3C[C@@H](CN4CCC(F)CC4)C3)cc2c1=O` [Example 30, cis-2-[2-(3-Chlorophenyl)-6-[3-[(4-fluoro-1-piperidyl)methyl]cyclobutyl]-4-oxo-quinazolin-3-yl]-N-isopropyl-acetamide] are “+++ (>75)” and 1 to 10 nM.
The corresponding values for `CC(C)NC(=O)Cn1c(-c2cccc(Cl)c2)nc2ccc([C@H]3C[C@@H](CN4CC5(COC5)C4)C3)cc2c1=O` [Example 31, cis-2-[2-(3-Chlorophenyl)-6-[3-(6-oxa-2-azaspiro[3.3]heptan-2-ylmethyl)cyclobutyl]-4-oxo-quinazolin-3-yl]-N-isopropyl-acetamide] are “+++ (>75)” and 1 to 10 nM.
In the case of `CC(C)NC(=O)Cn1c(-c2cccc(Cl)c2)nc2ccc([C@H]3C[C@@H](CN4CCC(O)CC4)C3)cc2c1=O` [Example 32, cis-2-[2-(3-Chlorophenyl)-6-[3-[(4-hydroxy-1-piperidyl)methyl]cyclobutyl]-4-oxo-quinazolin-3-yl]-N-isopropyl-acetamide], the “Ki(h-V1a)/Ki(h-V1b)” value in test [1] is reported as “+++ (>75)”. In test [2], this molecule displayed a Ki of 10 to 100 nM.
